Assay results as given in US7112589B2, “Cysteine protease inhibitors with 2-cyano-4-amino-pyrimidine structure and cathepsin k inhibitory activity for the treatment of inflammations and other diseases” (Novartis AG, priority 2001, dated 2006).

Target: T1, recombinant human cathepsin K (Homo sapiens, UniProt P43235)
T1 sequence (P43235 115-329): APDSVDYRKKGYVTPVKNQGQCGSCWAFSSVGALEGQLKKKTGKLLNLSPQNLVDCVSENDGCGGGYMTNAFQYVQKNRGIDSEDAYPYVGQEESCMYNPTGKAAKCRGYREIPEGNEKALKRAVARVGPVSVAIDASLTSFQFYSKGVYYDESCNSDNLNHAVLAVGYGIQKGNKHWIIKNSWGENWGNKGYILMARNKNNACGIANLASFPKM
Test: in vitro inhibition of recombinant human cathepsin K (Z-Phe-Arg-AMCA fluorescence assay)
Assay type: biochemical
Settings: recombinant human cathepsin K 0.16 nM, Z-Phe-Arg-AMCA substrate, pH 7.0, 30 min preincubation, 30 min incubation; read-out: IC50s for inhibition of human cathepsin K
Protocol: The in vitro assay is carried out as follows:
The assay is performed in 96 well microtiter plates at ambient temperature using recombinant human cathepsin K. Inhibition of cathepsin K is assayed at a constant enzyme (0.16 nM) and substrate concentration ([…] Z-Phe-Arg-AMCA-Peptide Institute Inc. Osaka, Japan) in 100 mM sodium phosphate buffer, pH 7.0, containing 2 mM dithiothreitol, 20 mM Tween 80 and 1 mM EDTA. Cathepsin K is preincubated with the inhibitors for 30 min, and the reaction is initiated by the addition of substrate. After 30 min incubation the reaction is stopped by the addition of E-64 (2 mM), and fluorescence intensity is read on a multi-well plate reader at excitation and emission wavelengths of 360 and 460 nm, respectively.

IC50 [nM]	SMILES
3	CN1CCN(Cc2ccc(C(=O)NCc3cnc(C#N)nc3NCC(C)(C)C)cc2)CC1 [Example I-22, N-[2-Cyano-4-(2,2-dimethyl-propylamino)-pyrimidin-5-ylmethyl]-4-(4-methyl-piperazin-1-ylmethyl)-benzamide]
1.5	COCCN1CCC(Cc2ccc(C(=O)NCc3cnc(C#N)nc3NCC(C)(C)C)cc2)CC1 [Example I-23, N-[2-Cyano-4-(2,2-dimethyl-propylamino)-pyrimidin-5-ylmethyl]-4-[1-(2-methoxy-ethyl)-piperidin-4-ylmethyl]-benzamide]
